Laboratory results taken from ChEMBL document CHEMBL3797132, “State of affairs: Design and structure-activity relationships of reversible P2Y12 receptor antagonists” (Bioorg Med Chem Lett, 2016).
One block for each molecule: values may come before it.

Experiments:
[1] = biological target: T1, P2Y purinoceptor 12 (Homo sapiens, UniProt Q9H244); assay: Binding affinity to P2Y12 receptor (unknown origin)
[2] = biological target: T1, P2Y purinoceptor 12; assay: Antagonist activity at P2Y12 receptor (unknown origin) by GTPgammaS binding assay; type: functional
[3] = Oral bioavailability in rat; type: ADME, organism-based; settings: in vivo
[4] = Clearance in rat; type: ADME, organism-based; settings: in vivo
[5] = biological target: T1, P2Y purinoceptor 12; assay: Displacement of [3H]-2-Mes-ADP from human P2Y12 receptor
[6] = Terminal half life in beagle dog at 10 mg/kg, po administered via oral gavage by LC/MS analysis; type: ADME, organism-based, Canis lupus familiaris; settings: in vivo, read-out: beta t1/2 (converted)
[7] = Cmax in beagle dog at 10 mg/kg, po administered via oral gavage by LC/MS analysis; type: ADME, organism-based, Canis lupus familiaris; settings: in vivo
[8] = biological target: T1, P2Y purinoceptor 12; assay: Displacement of [3H]-2-Mes-ADP from human P2Y12 receptor in platelets by scintillation counter
[9] = biological target: T1, P2Y purinoceptor 12; assay: Antagonist activity at P2Y12 receptor (unknown origin)

T1 sequence (Q9H244 whole entry): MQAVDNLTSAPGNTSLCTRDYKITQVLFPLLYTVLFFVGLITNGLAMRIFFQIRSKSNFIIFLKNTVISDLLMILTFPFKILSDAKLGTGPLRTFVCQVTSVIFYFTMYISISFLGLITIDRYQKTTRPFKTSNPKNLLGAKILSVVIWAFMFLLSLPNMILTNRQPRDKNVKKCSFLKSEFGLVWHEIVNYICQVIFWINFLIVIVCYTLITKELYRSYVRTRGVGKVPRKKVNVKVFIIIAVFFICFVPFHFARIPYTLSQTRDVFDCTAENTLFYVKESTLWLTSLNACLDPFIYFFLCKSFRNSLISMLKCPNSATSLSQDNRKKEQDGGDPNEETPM

Compound: CCOC(=O)c1cc(C#N)c(N2CCN(C(=O)NS(=O)(=O)c3ccc(Cl)s3)CC2)nc1C
IC50 [1]: 40 nM | IC50 [2]: 70 nM | bioavailability [3]: 15% | clearance [4]: 16 mL/min/kg

Compound: CCOC(=O)N1CCN(C(=O)[C@H](CCC(=O)O)NC(=O)c2cc(OC(C)(C)C(=O)O)c3ccc(C)cc3n2)CC1
IC50 [5]: 5.3 nM | half-life [6]: 7 h

Compound: CCOC(=O)c1cc(C#N)c(N2CC(C(=O)NS(=O)(=O)c3ccc(Cl)s3)C2)nc1C
IC50 [1]: 60 nM | clearance [4]: 3 mL/min/kg

Compound: CCc1cnc(-c2cc(C#N)c(N3CC(C(=O)NS(=O)(=O)c4ccc(Cl)s4)C3)nc2C)o1
IC50 [1]: 440 nM | IC50 [2]: 22 nM | clearance [4]: 16 mL/min/kg

Other lines, results leading:

IC50 [5]: 29 nM | half-life [6]: 0.2 h | Cmax [7]: 14 µM
Compound: CCOC(=O)N1CCN(C(=O)[C@H](CCC(=O)O)NC(=O)c2cc(OC(C)(C)C(=O)OCC)c3ccc(C)cc3n2)CC1

IC50 [8]: < 10 nM
Compound: CNc1cc2[nH]c(=O)n(-c3ccc(NC(=O)NS(=O)(=O)c4ccc(Cl)s4)cc3)c(=O)c2cc1F [ELINOGREL]

IC50 [9]: 5.01 nM
Compound: CCCSc1nc(N[C@@H]2C[C@H]2c2ccc(F)c(F)c2)c2nnn([C@@H]3C[C@H](OCCO)[C@@H](O)[C@H]3O)c2n1 [TICAGRELOR]
